Experimental data as given in patent US20230167073A1 (Teijin Pharma Limited, priority 2020, published 2023).

The molecules below were run against T1, Human TRPC6 (Homo sapiens, UniProt Q9Y210) (assay: Evaluation of TRPC6 channel inhibitory activity (1), FLIPR Calcium 5 Assay Kit, OAG stimulation (Compound Nos. 1-1293)). Settings: Human TRPC6 stably-expressing cells, OAG 30 μM, FLIPR Calcium 5 Assay Kit; read-out: Inhibitory activity (pIC50 class) (converted).
T1 construct: expressed in transfected cells
T1 sequence (Q9Y210 1-931): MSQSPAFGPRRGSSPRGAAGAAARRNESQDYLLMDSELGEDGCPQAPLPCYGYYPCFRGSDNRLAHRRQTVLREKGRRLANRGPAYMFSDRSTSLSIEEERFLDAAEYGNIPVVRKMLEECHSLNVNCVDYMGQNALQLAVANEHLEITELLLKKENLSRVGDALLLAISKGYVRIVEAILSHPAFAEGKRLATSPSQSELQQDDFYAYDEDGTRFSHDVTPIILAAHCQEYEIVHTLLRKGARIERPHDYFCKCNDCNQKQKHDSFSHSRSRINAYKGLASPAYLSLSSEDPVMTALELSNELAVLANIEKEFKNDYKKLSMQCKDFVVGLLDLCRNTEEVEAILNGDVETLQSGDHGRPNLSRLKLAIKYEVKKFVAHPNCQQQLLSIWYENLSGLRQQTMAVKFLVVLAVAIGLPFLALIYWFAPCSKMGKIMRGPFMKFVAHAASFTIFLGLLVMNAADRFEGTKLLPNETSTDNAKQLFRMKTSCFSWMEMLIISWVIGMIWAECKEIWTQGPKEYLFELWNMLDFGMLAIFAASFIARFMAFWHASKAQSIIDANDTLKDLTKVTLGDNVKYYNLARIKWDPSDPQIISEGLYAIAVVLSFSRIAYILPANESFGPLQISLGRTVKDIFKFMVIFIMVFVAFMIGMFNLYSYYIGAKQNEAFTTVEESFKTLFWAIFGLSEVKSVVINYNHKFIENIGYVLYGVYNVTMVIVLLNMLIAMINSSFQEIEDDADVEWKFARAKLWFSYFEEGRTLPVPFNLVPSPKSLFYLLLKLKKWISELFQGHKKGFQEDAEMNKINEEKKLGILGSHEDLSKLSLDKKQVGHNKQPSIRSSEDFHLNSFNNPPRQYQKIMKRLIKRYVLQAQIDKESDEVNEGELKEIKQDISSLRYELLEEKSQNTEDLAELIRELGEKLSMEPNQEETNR
Type: cell-based
Method in brief: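 Calcium influx read by FLIPR fluorescence in cells stably expressing human TRPC6, dye-loaded 30 min. Compounds preincubated 20 min, then OAG stimulation at 30 μM final. Inhibition fitted by four-parameter logistic regression to give pIC50, reported as +/++/+++ categories.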

IC50 | SMILES
> 1 µM | N#Cc1ccc(-c2ccc(CN)cn2)c(C(=O)c2nnc(N3CCOCC3)s2)c1 [compound 1093, 4-[5-(aminomethyl)pyridin-2-yl]-3-(5-morpholin-4-yl-1,3,4-thiadiazole-2-carbonyl)benzonitrile]
< 0.01 µM | Cc1cc(C(=O)c2cc(F)ccc2-c2ncc(CCN)cn2)cc(N2CCOCC2)n1 [compound 1097, [2-[5-(2-aminoethyl)pyrimidin-2-yl]-5-fluorophenyl]-(2-methyl-6-morpholin-4-ylpyridin-4-yl)methanone]
> 1 µM | Cn1cc(C(=O)c2cc(F)ccc2-c2ncc(CCN)cn2)cn1 [compound 1100, [2-[5-(2-aminoethyl)pyrimidin-2-yl]-5-fluorophenyl]-(1-methylpyrazol-4-yl)methanone]
0.01 to 1 µM | Cn1nc(N2CCOCC2)cc1C(=O)c1cc(F)ccc1-c1ncc(CN)cn1 [compound 1105, [2-[5-(aminomethyl)pyrimidin-2-yl]-5-fluorophenyl]-(2-methyl-5-morpholin-4-ylpyrazol-3-yl)methanone]
< 0.01 µM | Cn1nc(N2CCOCC2)cc1C(=O)c1cc(F)ccc1-c1ccc(CCN)cn1 [compound 1106, [2-[5-(2-aminoethyl)pyridin-2-yl]-5-fluorophenyl]-(2-methyl-5-morpholin-4-ylpyrazol-3-yl)methanone]

The remaining lines, values behind:

SMILES | IC50
N#Cc1ccc(-c2ccc(CCN)cn2)c(C(=O)c2nnc(N3CCOCC3)s2)c1 [compound 1094, 4-[5-(2-aminoethyl)pyridin-2-yl]-3-(5-morpholin-4-yl-1,3,4-thiadiazole-2-carbonyl)benzonitrile] | 0.01 to 1 µM
N#Cc1ccc(-c2ncc(CN)cn2)c(C(=O)c2nnc(N3CCOCC3)s2)c1 [compound 1095, 4-[5-(aminomethyl)pyrimidin-2-yl]-3-(5-morpholin-4-yl-1,3,4-thiadiazole-2-carbonyl)benzonitrile] | > 1 µM
N#Cc1ccc(-c2ncc(CCN)cn2)c(C(=O)c2nnc(N3CCOCC3)s2)c1 [compound 1096, 4-[5-(2-aminoethyl)pyrimidin-2-yl]-3-(5-morpholin-4-yl-1,3,4-thiadiazole-2-carbonyl)benzonitrile] | 0.01 to 1 µM
NCCc1cnc(-c2ccc(F)cc2C(=O)c2cnn(CC(F)F)c2)nc1 [compound 1098, [2-[5-(2-aminoethyl)pyrimidin-2-yl]-5-fluorophenyl]-[1-(2,2-difluoroethyl)pyrazol-4-yl]methanone] | > 1 µM
NCc1cnc(-c2ccc(F)cc2C(=O)c2cnn(CC(F)F)c2)nc1 [compound 1099, [2-[5-(aminomethyl)pyrimidin-2-yl]-5-fluorophenyl]-[1-(2,2-difluoroethyl)pyrazol-4-yl]methanone] | > 1 µM
NCCc1cnc(-c2ccc(F)cc2C(=O)c2cnn(CC3CC3)c2)nc1 [compound 1101, [2-[5-(2-aminoethyl)pyrimidin-2-yl]-5-fluorophenyl]-[1-(cyclopropylmethyl)pyrazol-4-yl]methanone] | 0.01 to 1 µM
CC(C)n1cc(C(=O)c2cc(F)ccc2-c2ncc(CCN)cn2)cn1 [compound 1102, [2-[5-(2-aminoethyl)pyrimidin-2-yl]-5-fluorophenyl]-(1-propan-2-ylpyrazol-4-yl)methanone] | 0.01 to 1 µM
Cc1nc(C(=O)c2cc(F)ccc2-c2ncc(CCN)cn2)cc(N2CCOCC2)n1 [compound 1103, [2-[5-(2-aminoethyl)pyrimidin-2-yl]-5-fluorophenyl]-(2-methyl-6-morpholin-4-ylpyrimidin-4-yl)methanone] | 0.01 to 1 µM
Cc1nc(C(=O)c2cc(F)ccc2-c2ncc(CN)cn2)cc(N2CCOCC2)n1 [compound 1104, [2-[5-(aminomethyl)pyrimidin-2-yl]-5-fluorophenyl]-(2-methyl-6-morpholin-4-ylpyrimidin-4-yl)methanone] | > 1 µM
Cn1nc(N2CCOCC2)cc1C(=O)c1cc(F)ccc1-c1ncc(CCN)cn1 [compound 1107, [2-[5-(2-aminoethyl)pyrimidin-2-yl]-5-fluorophenyl]-(2-methyl-5-morpholin-4-ylpyrazol-3-yl)methanone] | < 0.01 µM
